Assay results as given in ChEMBL document CHEMBL1201862, “PubChem BioAssay data set” (2004).
Active and inactive are the calls of the source.

Legend:
[1] = biological target: Nonstructural protein 1 (Influenza A virus, UniProt Q194T2); type: functional, Influenza A virus (A/California/07/2009(H1N1))
[2] = biological target: T1, Replicative DNA helicase DnaB (Mycobacterium tuberculosis, UniProt P9WMR3); assay: DnaB intein splicing inhibitors, dose response, biochemical, cell-free fluorescence (AID 449749); type: functional
T1 sequence (P9WMR3 whole entry): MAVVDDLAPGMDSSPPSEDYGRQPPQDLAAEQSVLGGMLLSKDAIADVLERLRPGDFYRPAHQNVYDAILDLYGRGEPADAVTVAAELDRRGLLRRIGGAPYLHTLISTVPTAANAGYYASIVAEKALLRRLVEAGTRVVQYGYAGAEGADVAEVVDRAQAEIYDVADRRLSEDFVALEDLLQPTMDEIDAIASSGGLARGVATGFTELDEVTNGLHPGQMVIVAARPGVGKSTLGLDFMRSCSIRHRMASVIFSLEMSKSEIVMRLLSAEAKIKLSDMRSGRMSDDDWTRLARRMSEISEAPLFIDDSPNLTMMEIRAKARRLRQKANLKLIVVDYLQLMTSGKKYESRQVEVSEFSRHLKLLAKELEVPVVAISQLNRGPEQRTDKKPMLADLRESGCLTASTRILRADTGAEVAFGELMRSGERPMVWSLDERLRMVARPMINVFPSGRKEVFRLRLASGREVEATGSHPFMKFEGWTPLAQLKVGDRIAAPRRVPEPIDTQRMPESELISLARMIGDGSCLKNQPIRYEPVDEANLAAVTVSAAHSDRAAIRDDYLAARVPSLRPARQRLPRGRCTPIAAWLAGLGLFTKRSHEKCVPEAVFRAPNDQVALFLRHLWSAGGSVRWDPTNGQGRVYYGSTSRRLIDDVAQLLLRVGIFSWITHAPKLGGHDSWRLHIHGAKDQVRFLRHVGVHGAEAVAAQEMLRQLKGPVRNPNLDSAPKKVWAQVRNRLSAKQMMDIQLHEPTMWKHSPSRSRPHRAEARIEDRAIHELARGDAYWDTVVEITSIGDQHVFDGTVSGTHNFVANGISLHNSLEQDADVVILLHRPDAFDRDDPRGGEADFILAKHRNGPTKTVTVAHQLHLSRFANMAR

[3] = biological target: T2, Protein RecA (Mycobacterium tuberculosis, UniProt P9WHJ3); assay: Fluorescence Cell-Free Homogeneous Dose Retest to Identify Inhibitors of RecA-Intein Splicing Activity. [Related pubchem assays (depositor defined):AID2097, AID2223, AID489010, AID492950]; type: functional
T2 sequence (P9WHJ3 whole entry): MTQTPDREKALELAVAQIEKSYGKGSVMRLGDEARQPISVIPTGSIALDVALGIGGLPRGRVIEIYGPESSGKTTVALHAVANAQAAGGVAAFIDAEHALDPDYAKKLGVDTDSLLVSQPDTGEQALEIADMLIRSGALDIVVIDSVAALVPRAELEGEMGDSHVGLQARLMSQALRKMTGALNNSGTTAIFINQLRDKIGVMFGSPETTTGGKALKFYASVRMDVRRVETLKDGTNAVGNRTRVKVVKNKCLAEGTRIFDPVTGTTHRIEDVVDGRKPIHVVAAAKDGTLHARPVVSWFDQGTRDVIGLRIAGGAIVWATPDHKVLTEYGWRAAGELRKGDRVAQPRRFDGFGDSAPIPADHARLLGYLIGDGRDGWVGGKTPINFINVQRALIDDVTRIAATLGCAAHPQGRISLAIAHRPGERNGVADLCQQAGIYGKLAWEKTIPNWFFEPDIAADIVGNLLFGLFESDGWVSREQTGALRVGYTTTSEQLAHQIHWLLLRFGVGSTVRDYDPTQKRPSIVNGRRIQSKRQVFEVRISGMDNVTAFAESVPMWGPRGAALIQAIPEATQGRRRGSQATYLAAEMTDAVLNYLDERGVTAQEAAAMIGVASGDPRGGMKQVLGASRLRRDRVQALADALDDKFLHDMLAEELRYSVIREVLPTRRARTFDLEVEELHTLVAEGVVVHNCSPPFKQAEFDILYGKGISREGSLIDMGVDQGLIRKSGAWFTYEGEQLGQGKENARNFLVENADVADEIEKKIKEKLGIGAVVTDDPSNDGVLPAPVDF

[4] = biological target: fMet-Leu-Phe receptor (Homo sapiens, UniProt P21462); assay: FPR ligands, dose response (AID 519); type: functional
[5] = system: BJ; assay: cells; type: functional, cell-based; conditions: Homo sapiens
[6] = cytotoxicity toward DRD oncogenic fibroblasts, dose response, cell-based, non-viral oncogenic, luminescence (AID 1934); type: functional; conditions: Homo sapiens
[7] = Luminescence Cell-Based Dose Retest to Confirm Inhibitors of Cancer Stem Cells. [Related pubchem assays (depositor defined):AID2717, AID2721]; type: functional; conditions: Homo sapiens
[8] = cytotoxicity in HEK-293T cells, dose response, cytotoxicity control for TCR NF-kB inhibitor project, luminescence, T-cell screen hits (AID 489026); type: functional, cell-based;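 also: cells exposed to compound about 14 hours before the viability readout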
[9] = cytotoxicity in HMLE control line with eGFP shRNA, dose response, counter-screen for HMLE_sh_ECad selective toxicity project, cell-based, HMLE_sh_eGFP, luminescence (AID 463074); type: functional, Homo sapiens;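 also: HMLE human mammary epithelial cells expressing control shRNA against eGFP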
[10] = cells; type: functional, cell-based
[11] = biological target: T3, Nuclear receptor subfamily 0 group B member 1 (Homo sapiens, UniProt P51843); type: functional, cell-based;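 also: HEK293T cells transfected with SF-1 and DAX-1 plus StAR promoter luciferase reporter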
T3 sequence (P51843 whole entry): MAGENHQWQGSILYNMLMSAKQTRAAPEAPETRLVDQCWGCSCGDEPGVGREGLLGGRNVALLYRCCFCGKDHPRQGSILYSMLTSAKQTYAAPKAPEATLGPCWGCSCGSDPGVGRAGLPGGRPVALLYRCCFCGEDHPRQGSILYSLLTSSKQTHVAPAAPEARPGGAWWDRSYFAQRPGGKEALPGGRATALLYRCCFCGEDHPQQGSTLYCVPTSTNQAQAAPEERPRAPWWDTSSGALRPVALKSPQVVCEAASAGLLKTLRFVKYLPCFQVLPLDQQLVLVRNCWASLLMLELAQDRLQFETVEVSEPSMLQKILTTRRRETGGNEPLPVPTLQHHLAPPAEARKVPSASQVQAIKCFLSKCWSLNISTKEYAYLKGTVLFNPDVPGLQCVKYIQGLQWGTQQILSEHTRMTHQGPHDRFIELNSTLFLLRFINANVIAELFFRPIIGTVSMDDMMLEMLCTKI

[12] = biological target: Paired box protein Pax-8 (Homo sapiens, UniProt Q06710); assay: inhibitors of PAX8-driven TPO luciferase reporter, dose response, RMG-I cells, cherry-pick (AID 687027); type: functional, cell-based;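 also: luciferase reporter driven by Pax8 target thyroperoxidase promoter measured by SteadyGlo luminescence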
[13] = PAX2 cell-based inhibition, dose response, selectivity assay for PAX8 inhibitor project, plate reader, dry powder samples (AID 743048); type: functional;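 also: HEK293 cells carrying a WT1 promoter luciferase reporter driven by expressed Pax2; potency is for inhibition of Pax2 driven reporter signal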
[14] = cytotoxicity in COV362 ovarian cancer cells, dose response, cytotoxicity control for PAX8 inhibitor project, cell-based, plate reader, dry powder, SA12 (AID 743144); type: functional
[15] = IOSE-T80 ovarian epithelial cell cytotoxicity, dose response, cytotoxicity control for PAX8 inhibitor project, plate reader, dry powder samples (AID 743045); type: functional, cell-based
[16] = A2780 ovarian cancer cell cytotoxicity, dose response, cytotoxicity control, plate reader, dry powder samples (AID 743046); type: functional, cell-based
[17] = NIH:OVCAR-3 ovarian cancer cell cytotoxicity, dose response, PAX8 inhibitor project, plate reader, dry powder samples (AID 743044); type: functional, cell-based
[18] = PAX5 activity inhibitors, dose response, selectivity assay for PAX8 inhibitor project, cell-based, plate reader, dry powder samples (AID 743047); type: functional;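 also: HEK293 cells carrying a Pax5 driven CD19 promoter luciferase reporter; potency of inhibitors that lower reporter luminescence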
[19] = IGROV1 ovarian cancer cell cytotoxicity, dose response, PAX8 inhibitor project, plate reader, dry powder samples (AID 743043); type: functional, cell-based; conditions: IGROV-1
[20] = cytotoxicity in OVCAR4 cells, dose response, cytotoxicity control for PAX8 inhibitor project, cell-based, plate reader, dry powder, SA11 (AID 743150); type: functional; conditions: OVCAR-4
[21] = cytotoxicity in COV434 cells, dose response, cytotoxicity control for PAX8 inhibitor project, cell-based, plate reader, dry powder, SA7 (AID 743145); type: functional
[22] = cytotoxicity in OV-90 ovarian cancer cells, dose response, PAX8 inhibitor project, cell-based, plate reader, dry powder, SA8 (AID 743149); type: functional
[23] = cytotoxicity dependent on PAX8, dose response, cell-based, plate reader, dry powder (AID 743049); type: functional
[24] = biological target: Metabotropic glutamate receptor 5 (Rattus norvegicus, UniProt P31424); assay: Identification of a glycine sulfonamide based non-MPEP site positive allosteric potentiator (PAM) of mGlu5 (calcium_assay).; type: functional
[25] = biological target: T4, Leucine aminopeptidase (Plasmodium falciparum 3D7, UniProt Q8IL11); assay: P. falciparum M17LAP inhibitors, primary screen, biochemical, fluorogenic H-Leu-NHMec substrate, 1536-well (AID 1619); type: functional
T4 sequence (Q8IL11 whole entry): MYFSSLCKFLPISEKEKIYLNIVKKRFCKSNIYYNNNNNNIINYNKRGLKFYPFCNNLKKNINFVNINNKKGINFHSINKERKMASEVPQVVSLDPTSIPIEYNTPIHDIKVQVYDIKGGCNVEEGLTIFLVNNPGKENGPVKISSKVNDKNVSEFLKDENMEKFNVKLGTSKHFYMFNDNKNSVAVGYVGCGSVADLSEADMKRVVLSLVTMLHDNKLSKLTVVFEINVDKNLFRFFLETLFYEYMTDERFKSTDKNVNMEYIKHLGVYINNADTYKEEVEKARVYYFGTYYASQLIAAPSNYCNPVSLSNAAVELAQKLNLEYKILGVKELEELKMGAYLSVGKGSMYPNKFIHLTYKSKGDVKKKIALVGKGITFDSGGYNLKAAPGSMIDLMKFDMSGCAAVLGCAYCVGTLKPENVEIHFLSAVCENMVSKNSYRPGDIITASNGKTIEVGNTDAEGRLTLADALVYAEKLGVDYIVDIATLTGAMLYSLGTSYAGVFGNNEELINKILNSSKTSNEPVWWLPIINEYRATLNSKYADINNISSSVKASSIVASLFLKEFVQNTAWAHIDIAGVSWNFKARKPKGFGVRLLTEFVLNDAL

[26] = biological target: Peroxisome proliferator-activated receptor gamma/Nuclear receptor coactivator 2 (Homo sapiens, UniProt P37231); type: functional;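 also: agonist potency for raising coactivator recruitment to the receptor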
[27] = biological target: Peroxisome proliferator-activated receptor gamma/Nuclear receptor coactivator 1 (Homo sapiens, UniProt P37231); type: functional;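 also: agonist potency as compounds enhance coactivator SRC-1 recruitment to PPARgamma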
[28] = biological target: Peroxisome proliferator-activated receptor gamma/Nuclear receptor coactivator 3 (Homo sapiens, UniProt P37231); type: functional;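 also: agonist potency for raising coactivator recruitment to the receptor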
[29] = biological target: Mucolipin-3 (Homo sapiens, UniProt Q8TDD5); assay: Dose response cell-based high-throughput screening assay for agonists of the transient receptor potential channel ML3 (TRPML3). [Related pubchem assays: 1526, 1424, 1448 ]; type: functional
[30] = biological target: Ion channel NompC (Danio rerio, UniProt Q7T1G6); assay: Fluorescence counterscreen assay for TRPML3 agonists: dose response cell-based high-throughput screening assay to identify agonists of the transient receptor potential channel N1 (TRPN1). [Related pubchem assays: 1526, 1424, 1448 ]; type: functional
[31] = biological target: T5, Oxysterols receptor LXR-beta (Homo sapiens, UniProt P55055); type: functional, cell-based;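 also: agonist activity at LXR measured by a cell-based luminescence readout across a dose range, run as a counterscreen for daf-12 agonists; HEK293 cells with Gal4-LXR fusion and GAL4-driven luciferase reporter; potency for activation of Gal4-LXR reporter so compounds are agonists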
T5 sequence (P55055 whole entry): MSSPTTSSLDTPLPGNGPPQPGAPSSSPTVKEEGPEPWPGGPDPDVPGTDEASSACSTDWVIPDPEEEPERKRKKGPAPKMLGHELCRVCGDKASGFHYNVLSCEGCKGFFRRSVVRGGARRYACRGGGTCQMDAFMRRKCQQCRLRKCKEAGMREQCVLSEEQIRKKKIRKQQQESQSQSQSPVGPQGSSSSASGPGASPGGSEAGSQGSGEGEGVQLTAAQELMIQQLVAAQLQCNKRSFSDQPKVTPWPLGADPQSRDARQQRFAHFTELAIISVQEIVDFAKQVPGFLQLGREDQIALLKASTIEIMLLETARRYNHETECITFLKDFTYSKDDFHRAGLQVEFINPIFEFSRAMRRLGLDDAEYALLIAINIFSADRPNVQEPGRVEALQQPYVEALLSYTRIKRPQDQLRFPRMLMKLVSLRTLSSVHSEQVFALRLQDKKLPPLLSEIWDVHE

[32] = Late stage assay provider results from the probe development effort to identify selective inhibitors of heat shock protein 90 (HSP90): Absorbance-based cell proliferation assay in SKBR3 cells.; type: functional; conditions: SK-BR-3
[33] = Late stage assay provider results from the probe development effort to identify selective inhibitors of heat shock protein 90 (HSP90): Absorbance-based cell proliferation assay in MCF7 cells.; type: functional

Ion channel NompC, sequence (Q7T1G6 whole entry, the tested form may be a part): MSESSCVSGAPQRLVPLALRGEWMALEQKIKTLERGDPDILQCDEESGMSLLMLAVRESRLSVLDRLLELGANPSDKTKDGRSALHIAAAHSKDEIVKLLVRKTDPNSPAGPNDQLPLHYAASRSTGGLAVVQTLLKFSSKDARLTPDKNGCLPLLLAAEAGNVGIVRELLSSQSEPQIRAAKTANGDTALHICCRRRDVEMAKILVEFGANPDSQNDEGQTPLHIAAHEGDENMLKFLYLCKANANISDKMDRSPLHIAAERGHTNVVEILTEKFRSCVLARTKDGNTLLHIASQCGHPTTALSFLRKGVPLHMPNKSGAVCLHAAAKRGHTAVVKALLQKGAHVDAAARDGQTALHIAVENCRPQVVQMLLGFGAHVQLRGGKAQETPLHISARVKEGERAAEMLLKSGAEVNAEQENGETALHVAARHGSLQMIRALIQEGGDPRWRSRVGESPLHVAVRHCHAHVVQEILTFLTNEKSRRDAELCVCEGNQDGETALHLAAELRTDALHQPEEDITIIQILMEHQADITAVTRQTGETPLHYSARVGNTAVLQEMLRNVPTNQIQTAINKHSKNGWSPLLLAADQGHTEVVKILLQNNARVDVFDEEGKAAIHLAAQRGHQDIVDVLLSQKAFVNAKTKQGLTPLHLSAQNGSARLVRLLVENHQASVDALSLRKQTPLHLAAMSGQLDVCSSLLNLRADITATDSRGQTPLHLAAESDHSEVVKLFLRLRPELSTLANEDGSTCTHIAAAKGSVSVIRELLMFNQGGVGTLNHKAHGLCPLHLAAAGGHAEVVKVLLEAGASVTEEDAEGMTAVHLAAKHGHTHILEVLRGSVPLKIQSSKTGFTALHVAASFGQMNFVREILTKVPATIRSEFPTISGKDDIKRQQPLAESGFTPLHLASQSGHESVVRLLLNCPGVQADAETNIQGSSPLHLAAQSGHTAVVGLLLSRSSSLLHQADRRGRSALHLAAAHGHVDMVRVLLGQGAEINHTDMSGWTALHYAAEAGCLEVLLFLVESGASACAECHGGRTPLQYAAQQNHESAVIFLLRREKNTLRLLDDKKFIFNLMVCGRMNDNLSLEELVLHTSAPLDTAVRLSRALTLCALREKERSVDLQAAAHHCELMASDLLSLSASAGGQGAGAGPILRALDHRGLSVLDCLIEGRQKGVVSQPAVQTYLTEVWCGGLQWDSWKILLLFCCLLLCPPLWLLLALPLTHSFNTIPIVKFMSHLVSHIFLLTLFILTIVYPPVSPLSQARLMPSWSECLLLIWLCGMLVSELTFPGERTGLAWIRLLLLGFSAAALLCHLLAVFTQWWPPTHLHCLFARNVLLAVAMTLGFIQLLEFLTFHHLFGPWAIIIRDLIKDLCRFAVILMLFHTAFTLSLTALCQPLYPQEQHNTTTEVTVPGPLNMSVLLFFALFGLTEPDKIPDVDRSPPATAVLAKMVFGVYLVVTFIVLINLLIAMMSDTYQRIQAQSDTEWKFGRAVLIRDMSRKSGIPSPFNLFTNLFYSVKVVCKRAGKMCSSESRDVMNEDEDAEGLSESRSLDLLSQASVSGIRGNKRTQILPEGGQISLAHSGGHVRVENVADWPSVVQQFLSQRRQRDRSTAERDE
Metabotropic glutamate receptor 5, sequence (P31424 whole entry): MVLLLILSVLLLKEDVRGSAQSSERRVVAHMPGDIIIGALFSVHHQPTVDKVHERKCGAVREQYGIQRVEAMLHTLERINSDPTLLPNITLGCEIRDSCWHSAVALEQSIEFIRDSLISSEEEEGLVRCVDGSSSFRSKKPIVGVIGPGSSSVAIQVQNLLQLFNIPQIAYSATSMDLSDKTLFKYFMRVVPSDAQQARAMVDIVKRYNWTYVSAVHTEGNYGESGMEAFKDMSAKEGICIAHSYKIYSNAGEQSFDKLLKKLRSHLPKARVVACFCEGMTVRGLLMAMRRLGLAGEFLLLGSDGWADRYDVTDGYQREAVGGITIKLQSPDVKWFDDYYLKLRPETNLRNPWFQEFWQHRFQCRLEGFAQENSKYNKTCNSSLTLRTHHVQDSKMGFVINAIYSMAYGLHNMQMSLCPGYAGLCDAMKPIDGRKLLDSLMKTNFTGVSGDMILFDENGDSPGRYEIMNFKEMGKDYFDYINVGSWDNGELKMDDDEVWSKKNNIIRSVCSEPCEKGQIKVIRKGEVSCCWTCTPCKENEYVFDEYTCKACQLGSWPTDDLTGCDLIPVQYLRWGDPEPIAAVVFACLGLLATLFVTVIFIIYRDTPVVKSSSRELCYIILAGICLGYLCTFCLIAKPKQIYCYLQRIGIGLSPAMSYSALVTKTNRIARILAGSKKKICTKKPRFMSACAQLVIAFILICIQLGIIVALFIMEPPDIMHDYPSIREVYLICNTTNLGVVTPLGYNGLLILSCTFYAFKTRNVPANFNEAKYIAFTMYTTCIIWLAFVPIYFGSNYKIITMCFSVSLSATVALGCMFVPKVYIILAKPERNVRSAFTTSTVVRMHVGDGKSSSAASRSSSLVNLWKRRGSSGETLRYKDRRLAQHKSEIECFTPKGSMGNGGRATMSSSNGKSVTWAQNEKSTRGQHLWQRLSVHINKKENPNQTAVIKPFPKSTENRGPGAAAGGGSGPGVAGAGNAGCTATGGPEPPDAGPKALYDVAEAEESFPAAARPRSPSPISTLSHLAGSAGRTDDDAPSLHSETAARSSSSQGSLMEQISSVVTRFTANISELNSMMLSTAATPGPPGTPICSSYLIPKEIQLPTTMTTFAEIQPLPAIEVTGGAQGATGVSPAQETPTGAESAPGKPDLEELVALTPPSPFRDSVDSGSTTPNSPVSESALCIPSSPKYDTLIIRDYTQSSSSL
Nonstructural protein 1, sequence (Q194T2 whole entry): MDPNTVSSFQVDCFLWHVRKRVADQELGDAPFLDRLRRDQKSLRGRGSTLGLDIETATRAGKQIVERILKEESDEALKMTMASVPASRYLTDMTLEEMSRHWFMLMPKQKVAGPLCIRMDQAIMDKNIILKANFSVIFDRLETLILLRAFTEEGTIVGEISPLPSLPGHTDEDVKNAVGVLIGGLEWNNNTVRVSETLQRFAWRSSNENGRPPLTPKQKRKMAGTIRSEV
Peroxisome proliferator-activated receptor gamma/Nuclear receptor coactivator 2, sequence (P37231 whole entry): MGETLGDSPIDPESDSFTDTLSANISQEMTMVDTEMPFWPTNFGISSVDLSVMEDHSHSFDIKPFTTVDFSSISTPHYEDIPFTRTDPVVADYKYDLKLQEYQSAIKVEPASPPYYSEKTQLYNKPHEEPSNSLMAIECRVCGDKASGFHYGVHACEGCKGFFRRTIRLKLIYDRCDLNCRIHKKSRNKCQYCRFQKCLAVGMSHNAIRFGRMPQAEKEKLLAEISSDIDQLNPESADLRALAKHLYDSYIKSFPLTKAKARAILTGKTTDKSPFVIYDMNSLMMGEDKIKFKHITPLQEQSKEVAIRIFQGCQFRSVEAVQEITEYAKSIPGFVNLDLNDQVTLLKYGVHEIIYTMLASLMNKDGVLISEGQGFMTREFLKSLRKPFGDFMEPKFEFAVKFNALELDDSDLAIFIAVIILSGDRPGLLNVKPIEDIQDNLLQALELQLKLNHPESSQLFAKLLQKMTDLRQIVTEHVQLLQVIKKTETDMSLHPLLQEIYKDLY
Peroxisome proliferator-activated receptor gamma/Nuclear receptor coactivator 2, sequence (Q15596 whole entry, further chain): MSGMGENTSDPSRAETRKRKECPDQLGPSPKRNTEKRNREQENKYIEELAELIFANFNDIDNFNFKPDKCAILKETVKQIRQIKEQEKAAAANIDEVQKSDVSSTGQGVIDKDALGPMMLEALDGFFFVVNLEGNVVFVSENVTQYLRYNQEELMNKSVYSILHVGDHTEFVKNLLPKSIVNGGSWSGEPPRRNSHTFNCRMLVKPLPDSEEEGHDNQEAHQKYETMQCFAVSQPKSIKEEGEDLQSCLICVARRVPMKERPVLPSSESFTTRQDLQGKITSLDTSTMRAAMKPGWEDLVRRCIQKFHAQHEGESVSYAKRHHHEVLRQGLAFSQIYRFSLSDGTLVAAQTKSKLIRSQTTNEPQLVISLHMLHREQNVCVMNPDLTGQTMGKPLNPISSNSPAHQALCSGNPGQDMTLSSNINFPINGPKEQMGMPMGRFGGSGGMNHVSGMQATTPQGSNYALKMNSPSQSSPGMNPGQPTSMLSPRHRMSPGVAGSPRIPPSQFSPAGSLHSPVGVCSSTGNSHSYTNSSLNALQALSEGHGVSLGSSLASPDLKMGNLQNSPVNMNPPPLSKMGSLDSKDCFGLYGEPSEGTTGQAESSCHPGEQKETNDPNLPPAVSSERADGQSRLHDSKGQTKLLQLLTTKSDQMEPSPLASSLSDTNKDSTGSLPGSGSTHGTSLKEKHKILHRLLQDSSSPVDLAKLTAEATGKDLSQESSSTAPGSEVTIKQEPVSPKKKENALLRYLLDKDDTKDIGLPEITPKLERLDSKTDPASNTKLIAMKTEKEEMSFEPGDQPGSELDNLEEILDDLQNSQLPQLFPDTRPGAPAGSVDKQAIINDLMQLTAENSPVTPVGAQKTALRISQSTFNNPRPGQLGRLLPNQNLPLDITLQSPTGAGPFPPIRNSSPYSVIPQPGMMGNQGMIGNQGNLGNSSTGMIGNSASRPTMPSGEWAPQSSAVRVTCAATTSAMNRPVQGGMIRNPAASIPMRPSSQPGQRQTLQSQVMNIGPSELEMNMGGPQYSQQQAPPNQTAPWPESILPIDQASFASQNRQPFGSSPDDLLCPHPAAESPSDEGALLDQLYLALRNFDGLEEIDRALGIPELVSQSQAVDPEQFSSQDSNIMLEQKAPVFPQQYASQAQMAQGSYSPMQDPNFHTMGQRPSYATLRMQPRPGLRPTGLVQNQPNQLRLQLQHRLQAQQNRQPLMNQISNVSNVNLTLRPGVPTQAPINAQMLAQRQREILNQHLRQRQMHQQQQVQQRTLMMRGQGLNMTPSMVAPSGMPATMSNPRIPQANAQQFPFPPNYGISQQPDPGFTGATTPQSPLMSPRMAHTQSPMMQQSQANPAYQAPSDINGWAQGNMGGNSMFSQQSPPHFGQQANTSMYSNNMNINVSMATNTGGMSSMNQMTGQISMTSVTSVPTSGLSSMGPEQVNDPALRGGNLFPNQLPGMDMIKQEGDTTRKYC

## Nc1ccc(Nc2ccccc2N)cc1
[1]
  IC50: 8.33 µM (active)
[2]
  AC50: 17.9 µM (active)
[3]
  EC50: 6.86 µM (active)
[4]
  Ki: > 66.7 µM (inactive)

## Cc1cccc(N(C)S(=O)(=O)c2ccc(-c3cnc(C4CC4)o3)cc2)c1
[5]
  EC50: 40.7 µM (active)
[6]
  EC50: < 0.12 µM (active)
[7]
  AC50: < 0.16 µM (active)
[8]
  IC50: > 80 µM (inactive)
[9]
  AC50: 0.562 µM (inconclusive)
[10]
  IC50: > 67.5 µM (inactive)
[11]
  IC50: > 67.5 µM (inactive)
[12]
  AC50: 1.99 µM (active)
[13]
  AC50: 33.9 µM (active)
[14]
  AC50: 0.366 µM (active)
[15]
  AC50: 0.778 µM (active)
[16]
  AC50: 3.95 µM (active)
[17]
  AC50: 1.89 µM (active)
[18]
  AC50: 76.2 µM (active)
[19]
  AC50: 13 µM (active)
[20]
  AC50: 0.364 µM (active)
[21]
  AC50: 0.823 µM (active)
[22]
  AC50: 1.19 µM (active)
[23]
  AC50: 3.81 µM (active)

## CS(=O)(=O)N(CC(=O)Nc1ccccn1)c1cc(C(F)(F)F)ccc1Cl
[24]
  EC50: 0.085 µM

## C=CCN1C=CC(=C/C=C(/C#N)C(=O)OCC)C=C1
[25]
  IC50: 72.5 µM (active)
[26]
  EC50: > 79.4 µM (not active)
[27]
  EC50: > 79.4 µM (not active)
[28]
  EC50: > 79.4 µM (not active)
[29]
  EC50: 15.3 µM (not active)
[30]
  EC50: 6.09 µM (active)
[31]
  EC50: > 67.5 µM (inactive)

## CC(=O)c1ccc(NC(=O)c2ccc(=O)oc2)cc1
[32]
  IC50: > 100 µM (inactive)
[33]
  IC50: > 100 µM (inactive)
